These results are taken from patent publication US8435928B2, “Herbicidal composition” (Ishihara Sangyo Kaisha, Ltd., priority 2007, dated 2013).

Assay [1] relates to velvetleaf (Abutilon theophrasti L.). Kind of assay: Test Example 4: foliar application of compound No. 2-27 wettable powder with surfactant, velvetleaf. Format: in vivo. As to conditions: 7 g a.i./ha wettable powder, 21st day. As to the method: (§1) Upland field soil was put into a 1/1,000,000 ha pot, and seeds of crabgrass (Digitaria sanguinalis L.) and velvetleaf (Abutilon theophrasti L.) were respectively sown and grown in a greenhouse. When crabgrass reached 4.2 to 5.0 leaf stage and velvetleaf reached 3.5 to 4.3 leaf stage, a prescribed amount (15 g a.i./ha) of a wettable powder comprising compound No. 1 as an active ingredient, prepared in accordance with the above Example 1, was diluted with water corresponding to 300 L/ha (containing 0.05 vol % of a surfactant containing the POA alkyl ether phosphate), followed by foliar application (the present invention). Further, for comparison, foliar application was carried out in the same manner by using an alkylaryl polyglycol ether surfactant (tradename: CITOWETT) at a concentration of 0.1 vol %, instead of the above surfactant (comparison).
(§2) On the 21st day after the application, the state of growth of the plants was visually observed (growth inhibition rate (%)=0 (the same as the untreated plot) to 100 (complete kill)), and the results as shown in Tables b1 and b2 were obtained.
(§3) The results as shown in Tables b6 and b7 were obtained in the same manner as in the above Test Example 1 except that a prescribed amount (15 g a.i./ha or 7 g a.i./ha) of a wettable powder comprising compound No. 2-27 as an active ingredient, prepared in accordance with the above Example 4, was used.

Assay [2] deals with crabgrass (Digitaria sanguinalis L.). The experiment in a line: Test Example 4: foliar application of compound No. 2-27 wettable powder with surfactant, crabgrass. Format: in vivo. The conditions noted are these: 15 g a.i./ha wettable powder, 21st day. The method, then:
as §1, §2, §3

In assay [3] the test system is crabgrass. The experiment in a line: Test Example 9: foliar application of compound No. 2-39 wettable powder with surfactant, crabgrass. Format: in vivo, Digitaria sanguinalis L. The conditions noted are these: 15 g a.i./ha wettable powder, 21st day.
Text: as §2
(§4) Upland field soil was put into a 1/1,000,000 ha pot, and seeds of crabgrass were sown and grown in a greenhouse. When crabgrass reached 4.0 to 4.5 leaf stage, a prescribed amount (15 g a.i./ha) of a wettable powder comprising compound No. 2-39 as an active ingredient, prepared in accordance with the above Example 1, was diluted with water corresponding to 300 L/ha (containing 0.05 vol % of a surfactant containing the POA alkyl ether phosphate), followed by foliar application. Further, for comparison, foliar application was carried out in the same manner by using SILWETT L-77 at a concentration of 0.1 vol % instead of the above surfactant.
On the 21st day after the application, the state of growth of the plant was evaluated in the same manner as in Test Example 1, and the results as shown in Table b13 were obtained.

In assay [4] the test system is crabgrass. The experiment in a line: Test Example 6: foliar application of compound No. 238 suspension concentrate with surfactant and optional oil or emulsifying agent, crabgrass. Format: in vivo, Digitaria sanguinalis L. As to conditions: 7 g a.i./ha suspension concentrate, ADEKA COL PS-440E 0.03 vol %, 20th day.
Text: as §2
Upland field soil was put into a 1/1,000,000 ha pot, and seeds of crabgrass were sown and grown in a greenhouse. When crabgrass reached 3.8 to 4.1 leaf stage, a prescribed amount (7 g a.i./ha) of a water-based suspension concentrate comprising compound No. 238 as an active ingredient, prepared in accordance with the above Example 3, was diluted with water corresponding to 300 L/ha (containing 0.03 vol % of a surfactant containing the POA alkyl ether phosphate and optionally having 0.03 vol % of a fatty acid ester, a hydrocarbon solvent or an emulsifying agent added), followed by foliar application. The fatty acid ester used here was AGNIQUE Me 18RD-F (tradename), the hydrocarbon solvent was Solvesso 150 (tradename) and the emulsifying agent was a mixture of a polyoxyethylene sorbitol tetraoleate, a polyoxyethylene castor oil and calcium dodecylbenzene sulfonate.
On the 20th day after the application, the state of growth of the plant was evaluated in the same manner as in Test Example 1, and the results as shown in Table b9 were obtained.

Assay [5] has as its system crabgrass. Kind of assay: Test Example 3: foliar application of compound No. 238 suspension concentrate with surfactant, crabgrass. Format: in vivo, Digitaria sanguinalis L. As to conditions: 30 g a.i./ha water-based suspension concentrate, 21st day. From the text:
On the 21st day after the application, the state of growth of the plants was visually observed (growth inhibition rate (%)=0 (the same as the untreated plot) to 100 (complete kill)), and the results as shown in Tables b1 and b2 were obtained. Upland field soil was put into a 1/1,000,000 ha pot, and seeds of crabgrass were sown and grown in a greenhouse. When crabgrass reached 4.5 to 5.0 leaf stage, a prescribed amount (30 g a.i./ha) of a water-based suspension concentrate comprising compound No. 238 as an active ingredient, prepared in accordance with the above Example 6, was diluted with water corresponding to 300 L/ha (containing 0.05 vol % of a surfactant containing the POA alkyl ether phosphate), followed by foliar application. Further, for comparison, foliar application was carried out in the same manner by using CITOWETT (tradename) at a concentration of 0.3 vol %, instead of the above surfactant. On the 21st day after the application, the state of growth of the plant was evaluated in the same manner as in Test Example 1, and the results as shown in Table b5 were obtained.

In assay [6] the test system is crabgrass (Digitaria sanguinalis L.). The experiment in a line: Test Example 1: foliar application of compound No. 1 wettable powder with surfactant, visual growth inhibition, crabgrass. Format: in vivo. The conditions noted are these: 15 g a.i./ha wettable powder, 21st day. The method, then:
as §1, §2

Assay [7] has as its system velvetleaf (Abutilon theophrasti L.). Kind of assay: Test Example 1: foliar application of compound No. 1 wettable powder with surfactant, visual growth inhibition, velvetleaf. Format: in vivo. The conditions noted are these: 15 g a.i./ha wettable powder, 21st day. As to the method:
as §1, §2

In assay [8] the test system is crabgrass. The experiment in a line: Test Example 11: foliar application of compound No. 4-3 wettable powder with surfactant, crabgrass. Format: in vivo, Digitaria sanguinalis L. The conditions noted are these: 15 g a.i./ha wettable powder, 21st day.
Text: as §2
as §4, with “5.0” for “4.5”, “4-3” for “2-39”, “L-77 (tradename)” for “L-77”
On the 21st day after the application, the state of growth of the plant was evaluated in the same manner as in Test Example 1, and the results as shown in Table b16 were obtained.

Assay [9] deals with crabgrass (Digitaria sanguinalis L.). Kind of assay: Test Example 2: foliar application of compound No. 53 suspension concentrate with surfactant, crabgrass. Format: in vivo. As to conditions: 15 g a.i./ha water-based suspension concentrate, 21st day. As to the method: as §1, §2
(§5) The results as shown in Tables b3 and b4 were obtained in the same manner as the above Test Example 1 except that a prescribed amount (15 g a.i./ha) of a water-based suspension concentrate comprising compound No. 53 as an active ingredient, prepared in accordance with the above Example 2, was used.

Assay [10] relates to velvetleaf (Abutilon theophrasti L.). The experiment in a line: Test Example 2: foliar application of compound No. 53 suspension concentrate with surfactant, velvetleaf. It counts as in vivo. As to conditions: 15 g a.i./ha water-based suspension concentrate, 21st day. As to the method:
as §1, §2, §5

Setting [11] is: surfactant ADECA COL PS-440E 0.05 vol %, present invention.
The mark [12] stands for this setting: surfactant CITOWETT 0.1 vol %, comparison.
[13] abbreviates: surfactant NIKKOL DDP-8 0.05 vol %, present invention.
Where [14] appears, read: surfactant PLYSURF A219B 0.05 vol %, present invention.
[15] abbreviates: surfactant PHOSPHANOL RS-410 0.05 vol %, present invention.
Setting [16] is: surfactant SILWETT L-77 0.1 vol %, comparison.
Setting [17] is: surfactant NIKKOL TDP-8 0.05 vol %, present invention.

In the case of `COCCOc1c(S(C)(=O)=O)ccc(C(=O)c2cnn(C)c2O)c1C` [Compound No. 2-27], the “Growth inhibition rate (%) of velvetleaf” value came out at 80% in assay [1] (setting [11]), 63% in assay [1] (setting [12]), 95% in [1] (setting [13]) and 70% in assay [1] (setting [14]). The “Growth inhibition rate (%) of crabgrass” value in assay [2] (setting [11]) stood at 90%; in assay [2] (setting [12]), 78%; in assay [2] (setting [13]), 90%; in assay [2] (setting [14]) it was 94%.
In the case of `CCOCc1c(S(C)(=O)=O)ccc(C(=O)c2cnn(C)c2O)c1C` [2-39], the “Growth inhibition rate (%) of crabgrass” value is listed as 93% in the assay on crabgrass [3] (setting [11]), 93% in the assay on crabgrass [3] (setting [13]), 70% in the assay on crabgrass [3] (setting [15]) and 20% in the assay on crabgrass [3] (setting [16]).
With `COCCOc1c(S(C)(=O)=O)ccc(C(=O)c2cnn(C)c2OC(=O)SC(C)(C)C)c1C` [Compound No. 238], the “Growth inhibition rate (%) of crabgrass” value with crabgrass [4] (fatty acid ester and emulsifying agent added) was determined as 83%; in the assay with crabgrass [4] (fatty acid ester, hydrocarbon solvent and emulsifying agent added), 85%; in the assay with crabgrass [4] (hydrocarbon solvent and emulsifying agent added) it was 83%; in the assay on crabgrass [4] (no fatty acid ester, hydrocarbon solvent or emulsifying agent), 73%; in the assay on crabgrass [5] (surfactant ADEKA COL PS-440E 0.05 vol %, present invention) it was 75%; in the assay with crabgrass [5] (surfactant CITOWETT 0.3 vol %, comparison), 50%. Moreover, the “Growth inhibition rate (%) of crabgrass” value in the assay on crabgrass [5] (setting [13]) was found to be 90%; with crabgrass [5] (setting [17]) it was 90%; in the assay with crabgrass [5] (surfactant PHOSPHANOL RS710 0.05 vol %, present invention), 80%; in the assay with crabgrass [5] (setting [14]) it was 90%.
For `CCSC(=O)Oc1c(C(=O)c2ccc(S(C)(=O)=O)c(C(=O)OC)c2C)cnn1C` [Compound No. 1], the “Growth inhibition rate (%) of crabgrass” value stood at 70% in assay [6] (setting [11]), 50% in assay [6] (setting [12]), 73% in [6] (setting [13]) and 60% in assay [6] (setting [14]). In addition, the “Growth inhibition rate (%) of velvetleaf” value in assay [7] (setting [11]) is 93%; in [7] (setting [12]), 73%; in assay [7] (setting [13]), 93%; in assay [7] (setting [14]), 90%.
As for `CCOC(=O)OC(C)Oc1c(C(=O)c2ccc(S(C)(=O)=O)c(OCCOC)c2C)cnn1CC` (centres unmarked) [Compound No. 4-3], the “Growth inhibition rate (%) of crabgrass” value turned out to be 83% in the assay on crabgrass [8] (setting [11]); 80% in the assay on crabgrass [8] (setting [13]); 85% in the assay on crabgrass [8] (setting [17]); 90% in the assay with crabgrass [8] (surfactant PHOSPHANOL ML-240 0.05 vol %, present invention); 80% in the assay with crabgrass [8] (setting [15]); 80% in the assay with crabgrass [8] (surfactant PHOSPHANOL RS-710 0.05 vol %, present invention). Besides, the “Growth inhibition rate (%) of crabgrass” value in the assay with crabgrass [8] (surfactant PHOSPHOLAN PS-236 0.05 vol %, present invention) came to 80%; in the assay on crabgrass [8] (setting [14]), 98%; in the assay with crabgrass [8] (setting [16]), 55%.
On to `CCSC(=O)Oc1c(C(=O)c2ccc(S(C)(=O)=O)c(OCCOC)c2C)cnn1C` [Compound No. 53], for which the “Growth inhibition rate (%) of crabgrass” value is 90% in assay [9] (setting [11]), 50% in assay [9] (setting [12]), 90% in [9] (setting [13]) and 78% in [9] (setting [14]). Further, the “Growth inhibition rate (%) of velvetleaf” value in assay [10] (setting [11]) is 93%; in [10] (setting [12]), 78%; in [10] (setting [13]), 98%; in assay [10] (setting [14]), 90%.
